Patent US20220110919A1, “METHODS OF MODULATING LEUKOCYTES ACTIVATION AND THROMBOCYTE CLEARANCE WITH INHIBITORS OF SPECIFIC NEURAMINIDASE ISOENZYMES” (The Governors of the University of Alberta, priority 2018, published 2022)
Like-named read-outs stand apart in the source and are kept apart here.

Experiments:
NEU4 = biological target: T1, NEU4 (Homo sapiens, UniProt Q8WWR8); assay: Inhibition assay, 4MU-NANA cleavage, NEU4; type: biochemical
T1 construct: GST; made in house; host or cells: E. coli
T1 sequence (Q8WWR8 1-484): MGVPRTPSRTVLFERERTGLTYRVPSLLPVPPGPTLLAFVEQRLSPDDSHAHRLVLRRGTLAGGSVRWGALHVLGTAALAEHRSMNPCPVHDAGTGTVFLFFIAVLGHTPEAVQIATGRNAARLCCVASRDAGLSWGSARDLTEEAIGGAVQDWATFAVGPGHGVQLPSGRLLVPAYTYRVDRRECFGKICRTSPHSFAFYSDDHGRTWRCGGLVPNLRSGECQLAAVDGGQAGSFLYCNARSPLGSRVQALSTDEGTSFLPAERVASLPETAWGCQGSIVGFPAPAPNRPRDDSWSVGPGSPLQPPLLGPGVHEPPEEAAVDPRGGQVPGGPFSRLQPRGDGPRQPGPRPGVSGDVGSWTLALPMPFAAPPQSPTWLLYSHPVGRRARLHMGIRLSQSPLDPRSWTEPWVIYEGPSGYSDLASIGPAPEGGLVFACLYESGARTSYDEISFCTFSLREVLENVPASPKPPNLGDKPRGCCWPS
Protocol: (§1) 4MU-NANA was then added to the mixture, making the final concentration of 4MU-NANA as 50 μM and the total volume of the reaction mixture as 20 μL. […] Assays were performed with duplicates for each point and IC50 was obtained by plotting the data with Graphpad™ Prism 5.0.

NEU1 = biological target: T2, NEU1 (Homo sapiens, UniProt Q99519); assay: Inhibition assay, 4MU-NANA cleavage, NEU1; type: biochemical
T2 construct: His; made in house; host or cells: HEK293 cells (cell lysate, unpurified)
Protocol: as §1

NEU3 = biological target: T3, NEU3 (Homo sapiens, UniProt Q9UQ49); assay: Inhibition assay, 4MU-NANA cleavage, NEU3; type: biochemical
T3 construct: MBP (N); made in house; host or cells: E. coli
T3 sequence (Q9UQ49 1-428): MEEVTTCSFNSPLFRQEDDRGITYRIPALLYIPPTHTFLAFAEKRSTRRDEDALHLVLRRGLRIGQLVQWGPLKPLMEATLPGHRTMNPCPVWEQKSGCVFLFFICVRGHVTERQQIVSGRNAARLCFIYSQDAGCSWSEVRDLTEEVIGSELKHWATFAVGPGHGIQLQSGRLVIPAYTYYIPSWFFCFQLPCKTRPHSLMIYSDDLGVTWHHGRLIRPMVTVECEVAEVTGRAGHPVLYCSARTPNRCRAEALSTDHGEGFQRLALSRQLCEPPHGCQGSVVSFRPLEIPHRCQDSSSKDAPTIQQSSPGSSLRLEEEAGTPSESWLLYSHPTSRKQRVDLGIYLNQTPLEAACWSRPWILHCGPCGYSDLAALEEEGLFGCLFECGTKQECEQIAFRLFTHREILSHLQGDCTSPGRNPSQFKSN
Protocol: as §1

NEU2 = biological target: T4, NEU2 (Homo sapiens, UniProt Q9Y3R4); assay: Inhibition assay, 4MU-NANA cleavage, NEU2; type: biochemical; conditions: 4MU-NANA as the substrate; pH 5.5
T4 construct: MBP (N); made in house; host or cells: E. coli
T4 sequence (Q9Y3R4 whole entry): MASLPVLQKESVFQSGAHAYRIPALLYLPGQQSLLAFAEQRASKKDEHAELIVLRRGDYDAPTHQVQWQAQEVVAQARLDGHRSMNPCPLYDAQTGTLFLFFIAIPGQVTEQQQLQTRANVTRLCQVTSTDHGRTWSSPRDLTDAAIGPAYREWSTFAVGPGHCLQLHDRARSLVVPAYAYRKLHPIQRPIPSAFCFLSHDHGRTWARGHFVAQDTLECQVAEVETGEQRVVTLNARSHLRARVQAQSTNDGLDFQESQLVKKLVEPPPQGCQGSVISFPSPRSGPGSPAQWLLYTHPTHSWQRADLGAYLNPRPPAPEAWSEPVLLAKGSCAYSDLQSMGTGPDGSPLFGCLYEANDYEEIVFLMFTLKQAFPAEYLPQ
Protocol: as §1

NEU1, NEU2, NEU3, NEU4 = assay: Target isoenzyme and selectivity from IC50 data of Table I; type: biochemical, human; conditions: from IC50 values of Table I
[1] = compounds of Table I, read-out: IC50 against neu4
[2] = 4MU-NANA as the substrate, pH 4.5, read-out: IC50 NEU1
[3] = 4MU-NANA as the substrate, pH 4.5, read-out: IC50 NEU3
[4] = compounds of Table I, read-out: IC50 against neu3
[5] = 4MU-NANA as the substrate, pH 4.5, read-out: IC50 NEU4

Row | IC50 (NEU4; [1]) [µM] | IC50 (NEU1; [2]) [µM] | IC50 (NEU3; [3]) [µM] | SMILES | also measured
1 | < 1 | – | – | CC(=O)N[C@@H]1C(O)C=C(C(=O)O)OC1C(O)C(O)Cn1cc(-c2ccc(-c3ccccc3)cc2)nn1 (stereo partly shown) [7i] | –
2 | – | > 500 | – | CC(=O)N[C@H]1[C@H]([C@H](O)[C@H](O)Cn2cc(-c3ccc(C(=O)O)cc3)nn2)OC(C(=O)O)=C[C@@H]1N=[N+]=[N-] [compound 13] | IC50 (NEU2): > 500 µM; Selectivity (NEU1, NEU2, NEU3, NEU4): 20
3 | – | > 500 | > 500 | CCCCC(=O)N[C@H]1C=C(C(=O)O)O[C@@H]([C@H](O)[C@H](O)CO)[C@@H]1NC(C)=O [25b, 5-Acetamido-2,6-anhydro-4-pentanamido-3,4,5-trideoxy-D-glycero-D-galacto-non-2-enonic acid] | IC50 (NEU4; [5]): > 500 µM
4 | – | > 500 | > 500 | CC(=O)N[C@H]1[C@H]([C@H](O)[C@H](O)CO)OC(C(=O)O)=C[C@@H]1NC(=O)C1CC1 [25c, 5-Acetamido-2,6-anhydro-4-cyclopropanecarboxamido-3,4,5-trideoxy-D-glycero-D-galacto-non-2-enonic acid] | IC50 (NEU4; [5]): > 500 µM
5 | – | – | > 500 | CCCCCC(=O)N[C@H]1[C@H]([C@H](O)[C@H](O)CNC(=O)CCC)OC(C(=O)O)=C[C@@H]1O [compound 70, 5-Hexanamido-9-butanamido-2,6-anhydro-3,5-dideoxy-D-glycero-D-galacto-non-2-enonic acid] | IC50 (NEU4; [5]): > 500 µM
6 | ≤ 10 | 8.4 ± 0.5 | 15 ± 2 | CCCC(=O)N[C@H]1[C@H]([C@H](O)[C@H](O)CO)OC(C(=O)O)=C[C@@H]1O [compound 30, 5-Butyramido-2,6-anhydro-3,5-dideoxy-D-glycero-D-galacto-non-2-enonic acid] | IC50 (NEU1; compounds of Table I, read-out: IC50 against neu1): ≤ 10 µM; IC50 (NEU4; [5]): 8.4 ± 0.4 µM
7 | ≤ 10 | – | – | CC(=O)N[C@@H]1C(O)C=C(C(=O)O)OC1C(O)C(O)Cn1cc(-c2ccc(NC(=O)c3ccccc3)cc2)nn1 (stereo partly shown) [compound 27] | –
8 | ≤ 10 | – | – | CC(=O)N[C@H]1[C@H]([C@H](O)[C@H](O)Cn2cc(-c3ccc(C(F)(F)F)cc3)nn2)OC(C(=O)O)=C[C@@H]1O [7g] | –
9 | ≤ 10 | – | – | [N-]=[N+]=NCC(=O)N[C@@H]1C(O)C=C(C(=O)O)OC1C(O)C(O)CO (stereo partly drawn) [compound 40, 5-(N-2-azidoacetyl)-2,3,5-trideoxy-D-glycero-D-galacto-2-nonulopyranosonic acid] | –
10 | ≤ 3 | – | – | CC(=O)N[C@@H]1C(O)C=C(C(=O)O)OC1C(O)C(O)Cn1cc(CNC(=O)c2ccccc2)nn1 (stereo partly shown) [compound 26] | –

Second part, the molecule before the results:

Row | SMILES | IC50 (NEU4; [1]) [µM] | IC50 (NEU1; [2]) [µM] | IC50 (NEU3; [3]) [µM] | also measured
11 | COc1ccc(-c2cn(C[C@@H](O)[C@@H](O)[C@@H]3OC(C(=O)O)=C[C@H](O)[C@H]3NC(C)=O)nn2)cc1 [7e] | ≤ 3 | – | – | –
12 | CCCCC(C)C(=O)N[C@H]1[C@H]([C@H](O)[C@H](O)CNC(C)=O)OC(C(=O)O)=C[C@@H]1O (mixture of isomers) [compound 74, 5-(2-Methyl)hexanamido(S/R)-9-acetanamido-2,6-anhydro-3,5-dideoxy-d-glycero-d-galacto-non-2-enonic acid] | – | 0.42 ± 0.07 | – | –
13 | CCCCCC(=O)N[C@H]1[C@H]([C@H](O)[C@H](O)CNC(C)=O)OC(C(=O)O)=C[C@@H]1O [compound 68, 5-Hexanamido-9-acetamido-2,6-anhydro-3,5-dideoxy-D-glycero-D-galacto-non-2-enonic acid] | – | – | > 500 | –
14 | CC(=O)Nc1ccc(C(=O)NC[C@@H](O)[C@@H](O)[C@@H]2OC(C(=O)O)=C[C@H](O)[C@H]2NC(C)=O)cc1 [compound 58, 5-Acetamido-9-(4-acetamido)benzamido-2,6-anhydro-3,5-dideoxy-d-glycero-d-galacto-non-2-enonic acid] | – | – | – | IC50 (NEU3; [4]): ≤ 10 µM
15 | CC(=O)N[C@@H]1C(N=[N+]=[N-])C=C(C(=O)O)OC1CNOCc1ccccc1 (stereo in doubt) [5c] | – | – | – | IC50 (NEU3; [4]): < 1 µM
16 | CCCCC(=O)NC[C@@H](O)[C@@H](O)[C@@H]1OC(C(=O)O)=C[C@H](O)[C@H]1NC(=O)CC [compound 65, 5-Propionamido-9-pentanamido-2,6-anhydro-3,5-dideoxy-D-glycero-D-galacto-non-2-enonic acid] | – | – | > 500 | –
17 | CC(=O)N[C@H]1[C@H]([C@H](O)[C@H](O)Cn2cc(-c3ccc(F)cc3)nn2)OC(C(=O)O)=C[C@@H]1O [7f] | ≤ 3 | – | – | Selectivity (NEU1, NEU2, NEU3, NEU4): 10
18 | CCCCCc1cn(C[C@@H](O)[C@@H](O)[C@@H]2OC(C(=O)O)=C[C@H](O)[C@H]2NC(C)=O)nn1 [compound 63, 5-Acetamido-9-(4-pentyl)triazolyl-2,6-anhydro-3,5-dideoxy-d-glycero-d-galacto-non-2-enonic acid] | ≤ 3 | – | – | IC50 (NEU3; [4]): ≤ 10 µM
19 | CC(=O)NC1C(NC(=O)NCCC(=O)O)C=C(C(=O)O)OC1C(O)C(O)Cn1cc(-c2ccc(C(=O)O)cc2)nn1 (stereo not shown) [compound 18] | – | > 500 | > 500 | –
20 | CCC(=O)N[C@H]1C=C(C(=O)O)O[C@@H]([C@H](O)[C@H](O)CO)[C@@H]1NC(C)=O [25a, 5-Acetamido-2,6-anhydro-4-propionamido-3,4,5-trideoxy-D-glycero-D-galacto-non-2-enonic acid] | – | > 500 | > 500 | IC50 (NEU4; [5]): > 500 µM
21 | CC(=O)N[C@H]1[C@H]([C@H](O)[C@H](O)CO)OC(C(=O)O)=C[C@@H]1NC(=O)C1CCC1 [25d, 5-Acetamido-2,6-anhydro-4-cyclobutanecarboxamido-3,4,5-trideoxy-D-glycero-D-galacto-non-2-enonic acid] | – | > 500 | > 500 | IC50 (NEU4; [5]): > 500 µM
22 | CC(=O)NC1C(N)C=C(C(=O)O)OC1C(O)C(O)Cn1cc(-c2ccc(C(=O)O)cc2)nn1 (stereo not shown) [compound 15] | – | > 500 | > 500 | IC50 (NEU2): > 500 µM; IC50 (NEU4; [5]): > 500 µM
23 | CCCCCC(=O)NC[C@@H](O)[C@@H](O)[C@@H]1OC(C(=O)O)=C[C@H](O)[C@H]1NC(=O)CCCCC [compound 64, 5-Hexanamido-9-hexanamido-2,6-anhydro-3,5-dideoxy-d-glycero-d-galacto-non-2-enonic acid] | – | – | > 500 | IC50 (NEU4; [5]): > 500 µM
24 | CC(=O)N[C@H]1C(C(O)C(O)Cn2cc(CO)nn2)OC(C(=O)O)=C[C@H]1O (stereo partly shown) [compound 28, C9-4HMT-DANA] | – | > 500 | 80 ± 10 | IC50 (NEU3; [4]): ≤ 100 µM
25 | CCCCCC(=O)N[C@H]1[C@H]([C@H](O)[C@H](O)CNC(=O)CC)OC(C(=O)O)=C[C@@H]1O [compound 69, 5-Hexanamido-9-propionamido-2,6-anhydro-3,5-dideoxy-d-glycero-d-galacto-non-2-enonic acid] | – | – | > 500 | –
26 | CCCCC(C)C(=O)N[C@H]1[C@H]([C@H](O)[C@H](O)CO)OC(C(=O)O)=C[C@@H]1O (mixture of isomers) [compound 72, 5-(2-Methyl)hexanamido(S/R)-2,6-anhydro-3,5-dideoxy-d-glycero-d-galacto-non-2-enonic acid] | – | 0.55 ± 0.07 | – | –
27 | CC(=O)N[C@@H]1C(O)C=C(C(=O)O)OC1C(O)C(O)Cn1cc(-c2ccc(C(=O)O)cc2)nn1 (stereo partly shown) [7h] | ≤ 3 | – | – | –
28 | CC(=O)Nc1cccc(C(=O)NC[C@@H](O)[C@@H](O)[C@@H]2OC(C(=O)O)=C[C@H](O)[C@H]2NC(C)=O)c1 [compound 60, 5-Acetamido-9-(3-acetamido)benzamido-2,6-anhydro-3,5-dideoxy-d-glycero-d-galacto-non-2-enonic acid] | – | – | – | IC50 (NEU3; [4]): ≤ 10 µM
